From patent publication US20140271605A1, “STABLE BIOACTIVE SUBSTANCES AND METHODS OF MAKING” (ADVANCED BIONUTRITION CORP., priority 2013, published 2014)

Assay: Stability testing of the herbicides mixture suspension
Assay type: physicochemical
Conditions: 40° C. for 30 days
Description: Stability testing of the herbicides mixture suspension: The commercial solutions containing Glyphosate or Round-Up are mixed together, and tested along with the stable Round-Up and Glyphosate mixed suspensions of the present invention. The liquids placed in an oven at 40° C. for 30 days. The remaining activities of the herbicides in the samples are measured following standard protocols.

O=C(O)CNCP(=O)(O)O [Glyphosate]
remaining activity of the herbicide, free commercial solutions mixed together: No Glyphosate activity is detected
